According to patent US4048328A, “Alkyl derivatives of 4,5-dehydro PGF1” (American Home Products Corporation, priority 1976, dated 1977):
Read-outs that look alike come from different tables or passages of the source.

Assays:
[1] = system: horse; test: synchronization of estrus and regulation of ovulation in the horse; format: in vivo; settings: given on second and third day before expected estrus; rectal palpation
From the text: It is often desirable to synchronize estrus in domestic animals, for example, horses, cattle, sheep, swine or dogs, in order to be able to perform artificial insemination or mating with a male of the desired genetic quality under optimum conditions. In the past, this has been done by administering to the animals an ovulation-inhibiting agent, withdrawing administration of said agent shortly before the date chosen for mating or artificial insemination, and relying either upon the natural production of LH and FSH to induce ovulation and to produce estrus or by administering gonadotrophins. However, this procedure was not entirely satisfactory because ovulation at a predetermined time occured only in a certain proportion of the animals when gonadotrophins were not used. On the other hand, the high cost of gonadotrophins and side effects encountered in their administration needs this method impractical. It is now possible to obtain substantially complete synchronization of ovulation and of estrus, by treating the animals in a given group with the compound of formula 1 before the predetermined period of time for mating or artificial insemination, so as to obtain ovulation and estrus within that time interval. The delay in the onset of ovulation and estrus following administration of the compound of this invention varies with the species of animal. […]

[2] = system: mated hamsters; test: abortifacient test in mated hamsters (Labhsetwar); format: in vivo, hamster; settings: Mesocricetus auratus, sc
Experimental: Furthermore, when the compounds of this invention are tested by the method of A. P. Labhsetwar, Nature 230, 528 (1971) whereby the compound is given subcutaneously on a daily basis to mated hamsters on days 4, 5 and 6 of pregnancy, thereafter the animals being sacrificed on day 7 of pregnancy and the number of abortions counted, the compounds are shown to have abortifacient properties.

[3] = system: histamine-induced bronchoconstriction; test: histamine-induced bronchoconstriction in the anesthetized guinea pig (Greenberg and Beaulieu); format: in vivo
Experimental: (§1) Maximal effect was seen within 3 minutes after 10 μg/kg and returned to the control level within 50 minutes. Hypotension of short duration (1 - 2 minutes) occurred following this mode of administration. […] Maximal effect was seen within 3 minutes after 0.1 μg/kg and returned to the control level within 70 minutes.
Percentage inhibition of histamine-induced bronchoconstriction in the anesthetized guinea pig after intravenous administration of trans-7-[2-(3-hydroxy-3-methyl-1-octenyl)-5-oxocyclopentyl]heptanoic acid (Isomer B'). Each value is the mean of 8 - 12 experiments.
Percentage inhibition of histamine-induced bronchoconstriction in the anesthetized guinea pig after aerosol administration of trans-7-[2-(3-hydroxy-3-methyl-1-oxtenyl)-5-oxocyclopentyl]heptanoic acid (Isomer B'). Each value is the mean of 8 - 12 experiments.

[4] = system: gastric secretion; settings: in vivo; cited from earlier work
[5] = system: blood pressure; test: blood pressure after administration in the anesthetized guinea pig; format: in vivo; settings: after aerosol administration
Experimental: as §1

[6] = system: guinea pig tracheal strip; test: relaxation of carbachol-induced contractions of isolated guinea pig tracheal strips; settings: for RELAXATION of tracheal strip: carbachol-contracted, mean of 12 strips
From the text: The relaxation of the guinea pig tracheal strip by trans-7-[2-(3-hydroxy-3-methyl-1-octenyl)-5-oxocyclopentyl]heptanoic acid (Isomer B'). Each value is the mean of the responses of 12 strips.

[7] = system: pregnancy; settings: rhesus monkey; cited from earlier work
[8] = system: pregnancy; settings: human; cited from earlier work
[9] = system: secretion of gastric acid; test: inhibition of gastric acid secretion in rats (Shay et al.); format: in vivo; settings: po; orally, rat
Experimental: For example, when trans,cis-7-[2-(3-hydroxy-4,4-dimethyl-1-octenyl)-5-oxocyclopentyl]-5-heptanoic acid (Example 68) is given orally to the rat according to the aforementioned method, an ED50 of about 1.0 mg/kg is obtained for the compound.

[10] = basic and acidic conditions; cited from earlier work
[11] = 168 h, subcutaneous, days 4, 5 and 6 of pregnancy, sacrificed day 7, read-out: dose giving complete abortion in all animals

CCCCCC(C)(O)/C=C/[C@H]1CC[C@H](O)[C@@H]1C/C=C\CCCC(=O)O (relative stereo) [trans, cis-7-[2α-hydroxy-5-(3-hydroxy-3-methyl-1-octenyl)cyclopentyl]-5-heptenoic acid]
ovulation after estrus (majority of animals) [1]: from the fourth to the sixth day

CCCCCC(C)(O)/C=C/[C@H]1CCC(=O)[C@@H]1CC/C=C\CCC(=O)O (relative stereo) [trans, cis-7-[2-(3-hydroxy-3-methyl-1-octenyl)-5-oxocyclopentyl]-4-heptenoic acid]
ED100 [2, 11]: 1 mg/kg/day

CCCCCC(C)(O)/C=C/[C@H]1CCC(=O)[C@@H]1CCCCCCC(=O)O (relative stereo) [trans-7-[2-(3-hydroxy-3-methyl-1-octenyl)-5-oxocyclopentyl]-heptanoic acid]
protection against histamine-induced bronchospasm ([3]; anesthetized guinea pig): significant protection

CCCCC[C@@](C)(O)/C=C/[C@H]1[C@H](O)CC(=O)[C@@H]1C/C=C\CCCC(=O)O [15(R)-methyl]
effect on gastric secretion [4]: inhibit gastric secretion

CCCCCC(C)(O)/C=C/[C@H]1CCC(=O)[C@@H]1CCCCCCC(=O)O (single isomer, unassigned) [Isomer B', trans-7-[2-(3-hydroxy-3-methyl-1-octenyl)-5-oxocyclopentyl]-heptanoic acid]
changes in the blood pressure [5]: no notable changes in the blood pressure
inhibition at 1e-05 mg/kg ([3]; Cavia porcellus, intravenous, 0.01 μg/kg, mean of 8 - 12 experiments): 14.8 ± 2%
inhibition at 0.0001 mg/kg ([3]; Cavia porcellus, intravenous, 0.1 μg/kg, mean of 8 - 12 experiments): 46.4 ± 5.5%
inhibition at 0.001 mg/kg ([3]; Cavia porcellus, intravenous, 1.0 μg/kg, mean of 8 - 12 experiments): 66 ± 5.4%
inhibition at 0.01 mg/kg ([3]; Cavia porcellus, intravenous, 10.0 μg/kg, mean of 8 - 12 experiments): 81.9 ± 5.2%
inhibition of histamine-induced bronchoconstriction, dose relation ([3]; aerosol): linear dose related inhibition
times more potent than prostaglandin E2 or 11-deoxy-prostaglandin E1 ([3]; aerosol): 78 times
time of maximal effect ([3]; aerosol, after 0.1 μg/kg): ≤ 3 min
time of return to the control level ([3]; aerosol, after 0.1 μg/kg): ≤ 70 min
% INHIBITION of histamine-induced bronchoconstriction ([3]; aerosol, total dose 10^-1 μg, mean of 8 - 12 experiments): 78.1 ± 4.2%
% INHIBITION of histamine-induced bronchoconstriction ([3]; aerosol, total dose 10^-2 μg, mean of 8 - 12 experiments): 66.8 ± 4.7%
% INHIBITION of histamine-induced bronchoconstriction ([3]; aerosol, total dose 10^-3 μg, mean of 8 - 12 experiments): 49.3 ± 5.0%
% INHIBITION of histamine-induced bronchoconstriction ([3]; aerosol, total dose 10^-4 μg, mean of 8 - 12 experiments): 38.6 ± 5.9%
% INHIBITION of histamine-induced bronchoconstriction ([3]; aerosol, total dose 10^-5 μg, mean of 8 - 12 experiments): 20.9 ± 5.1%
inhibition of histamine-induced bronchoconstriction, dose relation ([3]; intravenous): linear dose related inhibitions
times more potent than prostaglandin E2 or 11-deoxy-prostaglandin E1 ([3]; intravenous): 32 times
time of maximal effect ([3]; intravenous, after 10 μg/kg): ≤ 3 min
time of return to the control level ([3]; intravenous, after 10 μg/kg): ≤ 50 min
RELAXATION of tracheal strip ([6]; 1.0 μg/ml): 0.2 ± 0.2 g
RELAXATION of tracheal strip ([6]; 3.0 μg/ml): 0.39 ± 0.04 g
RELAXATION of tracheal strip ([6]; 10 μg/ml): 0.79 ± 0.1 g
RELAXATION of tracheal strip ([6]; 30 μg/ml): 1.29 ± 0.1 g
relaxation of the tracheal strip, dose relation ([6]; cumulative concentrations): linear dose related relaxation

CCCCC(C)(C)[C@H](O)/C=C/[C@H]1[C@H](O)CC(=O)[C@@H]1C/C=C\CCCC(=O)OC [16,16-dimethyl PGE2 methyl ester]
effect on gastric secretion [4]: effective in inhibiting gastric acid secretion

CCCCCC(C)(O)/C=C/[C@H]1[C@H](O)CC(=O)[C@@H]1C/C=C\CCCC(=O)OC (some centres unmarked) [15-methyl PGE2 methyl esters]
effect on pregnancy [7]: interrupt pregnancy
effect on pregnancy [8]: interrupt pregnancy

CCCCC(C)(C)C(O)/C=C/[C@H]1CCC(=O)[C@@H]1C/C=C\CCCC(=O)O (relative stereo) [trans, cis-7-[2-(3-hydroxy-4,4-dimethyl-1-octenyl)-5-oxocyclopentyl]-5-heptenoicacid]
ED50 [9]: ~1 mg/kg

CCCCC[C@](C)(O)/C=C/[C@@H]1[C@@H](C/C=C\CCCC(=O)O)[C@@H](O)C[C@H]1O [15-Methyl PGF2α]
effect on pregnancy [7]: interrupt pregnancy
effect on pregnancy [8]: interrupt pregnancy

CCCCCC(C)(O)CCC1CCC(=O)C1CCCCCCC(=O)O (centres unmarked) [2-(3-hydroxy-3-methyl-octyl)-5-oxocyclopentaneheptanoic acid, reference compound]
ED100 ([2]; comparison with saturated 15-methyl analog, above test, read-out: dose below which complete abortion is not caused): ≥ 30 mg/kg/day

CCCCC[C@H](O)/C=C/[C@H]1[C@H](O)CC(=O)[C@@H]1C/C=C\CCCC(=O)O [PGE2]
dehydration of the 11-hydroxy group [10]: participates readily in dehydration reactions

CCCCC[C@](C)(O)/C=C/[C@H]1[C@H](O)CC(=O)[C@@H]1C/C=C\CCCC(=O)O [15(S)-methyl PGE2]
effect on gastric secretion [4]: inhibit gastric secretion

CCCCCC(C)(O)/C=C/[C@H]1CCC(=O)[C@@H]1C/C=C\CCCC(=O)O (relative stereo) [trans, cis-7-[2-(3-Hydroxy-3-methyl-1-octenyl)-5-oxocyclopentyl]-5-heptenoic Acid]
ED100 [2, 11]: 2.5 mg/kg/day

CCCCCC(C)(O)/C=C/[C@H]1CCC(O)[C@@H]1C/C=C\CCCC(=O)O (relative stereo) [trans, cis-7[2-hydroxy-5-(3-hydroxy-3-methyl-1-octenyl)cyclopentyl]-5-heptenoic acid]
ED100 [2, 11]: 0.5 mg/kg/day
